Data as given in patent US20240066115A1, “DETERMINATION AND USES OF CD8+ T CELL EPITOPES” (priority 2021, published 2024).
Where a SMILES comes first, the peptide text is derived from it.

Columns and labels:
GL261/vIII target cells = test: Cytotoxic T cell killing assay, T cells from vaccinated mice; conditions: 50:1 effector to target ratio
GL261/vIII = test: Intracranial glioma model GL261/vIII, peptide vaccination; type: in vivo; conditions: candidate peptides as individual vaccines
Text: Y6-pepvIII is effective in an intracranial glioma model. Because of its significant effect on survival in the EGFRvIII subcutaneous tumor model, we selected Y6-pepvIII for in-depth analysis. First, we tested this vaccine in a model that more accurately represented human gliomas. We utilized the commonly employed murine glioma 261 (GL261) intracranial tumor model (30) which was transfected with the EGFRvIII cDNA to yield a line with high expression, GL261/vIII. We explored intracranial injection protocols that would lead to reproducible survival curves and identified conditions where 90% of the animals survived 23-29 days. To compare vaccine efficacy, mice received either Montanide (ISA51) alone, 100 ug of KLH with Montanide, 100 ug of KLH conjugated to pepvIII or Y6-pepvIII in Montanide following the vaccination schedule outlined in FIG. 2A. While KLH treatment had no measurable impact on survival, vaccination with the pepvIII induced a modest but statistically significant 23% increase in survival vs. control mice (FIG. 2B; median survival: Control=26.0 days, KLH=27 days, pepvIII=32 days, p<0.0001).
Intracranial model. Six to 8-week old C57BL/6J mice (Jackson Laboratories, Bar Harbor, ME), had gliomas established by stereotactically injecting 10,000 GL261/vIII […] CT2A/vIII cells into the left striatum (2 mm posterior to the coronal suture and 2 mm lateral to the sagittal suture) on day 0 of the experimental process as previously described. Briefly, mice were anesthetized with isoflurane (4%) and placed in the stereotactic frame. An incision was made, and a burr hole was drilled over the striatum. GL261/vIII or CT2A/vIII cells were injected at the above stated coordinates using a Hamilton Microsyringe controlled by an automated micro-pump injection system. Mice were assigned to treatment groups randomly and tumor progression was monitored by bioluminescent signal as detected by the IVIS imaging system (Caliper Life Sciences, Hopkinton, MA).
For survival experiments, each treatment group consisted of 6 to 15 mice. […]

## CC(C)C[C@H](N)C(=O)N[C@@H](CCC(=O)O)C(=O)N[C@@H](CCC(=O)O)C(=O)N[C@@H](CCCCN)C(=O)N[C@@H](CCCCN)C(=O)N[C@@H](Cc1ccc(O)cc1)C(=O)N[C@@H](CC(N)=O)C(=O)N[C@@H](Cc1ccc(O)cc1)C(=O)N[C@H](C(=O)N[C@H](C(=O)N[C@H](C(=O)N[C@@H](CC(=O)O)C(=O)N[C@@H](Cc1c[nH]cn1)C(=O)O)[C@@H](C)O)C(C)C)C(C)C [Y6-pepvIII] (H-LEEKKYNYVVTDH-OH)
GL261/wt target cells
  cytotoxic activity against GL261/wt target cells: no cytotoxic activity
GL261/vIII target cells
  cytotoxic capacity of T cells of vaccinated mice: increased cytotoxic capacity

## CC(C)C[C@H](N)C(=O)N[C@@H](CCC(=O)O)C(=O)N[C@@H](CCC(=O)O)C(=O)N[C@@H](CCCCN)C(=O)N[C@@H](CCCCN)C(=O)NCC(=O)N[C@@H](CC(N)=O)C(=O)N[C@@H](Cc1ccc(O)cc1)C(=O)N[C@H](C(=O)N[C@H](C(=O)N[C@H](C(=O)N[C@@H](CC(=O)O)C(=O)N[C@@H](Cc1c[nH]cn1)C(=O)O)[C@@H](C)O)C(C)C)C(C)C [pepvIII, reference compound]
GL261/wt target cells
  cytotoxic activity against GL261/wt target cells: no cytotoxic activity

## LEEYVVTDH
GL261/vIII
  increase in survival relative to KLH treated control mice: 54%

## NYVVTDH
GL261/vIII
  increase in survival relative to KLH treated control mice: 18%

## LEEKKNYV
GL261/vIII
  increase in survival relative to KLH treated control mice: 30%
